Measurements from ChEMBL document CHEMBL2157945, “Identification of pyrimidine derivatives as hSMG-1 inhibitors” (Bioorg Med Chem Lett, 2012).
The source made the active and inactive calls. The rule behind the calls is not given here.

What was measured:
[1] = molecular target: Cyclin-dependent kinase 1 (Homo sapiens, UniProt P06493); test: Inhibition of CDK1
[2] = molecular target: T1, Serine/threonine-protein kinase SMG1 (Homo sapiens, UniProt Q96Q15); test: Inhibition of human recombinant SMG1 expressed in HEK293 cells using GST-tagged p53 as substrate after 1 hr by DELFIA assay
T1 sequence (Q96Q15 whole entry): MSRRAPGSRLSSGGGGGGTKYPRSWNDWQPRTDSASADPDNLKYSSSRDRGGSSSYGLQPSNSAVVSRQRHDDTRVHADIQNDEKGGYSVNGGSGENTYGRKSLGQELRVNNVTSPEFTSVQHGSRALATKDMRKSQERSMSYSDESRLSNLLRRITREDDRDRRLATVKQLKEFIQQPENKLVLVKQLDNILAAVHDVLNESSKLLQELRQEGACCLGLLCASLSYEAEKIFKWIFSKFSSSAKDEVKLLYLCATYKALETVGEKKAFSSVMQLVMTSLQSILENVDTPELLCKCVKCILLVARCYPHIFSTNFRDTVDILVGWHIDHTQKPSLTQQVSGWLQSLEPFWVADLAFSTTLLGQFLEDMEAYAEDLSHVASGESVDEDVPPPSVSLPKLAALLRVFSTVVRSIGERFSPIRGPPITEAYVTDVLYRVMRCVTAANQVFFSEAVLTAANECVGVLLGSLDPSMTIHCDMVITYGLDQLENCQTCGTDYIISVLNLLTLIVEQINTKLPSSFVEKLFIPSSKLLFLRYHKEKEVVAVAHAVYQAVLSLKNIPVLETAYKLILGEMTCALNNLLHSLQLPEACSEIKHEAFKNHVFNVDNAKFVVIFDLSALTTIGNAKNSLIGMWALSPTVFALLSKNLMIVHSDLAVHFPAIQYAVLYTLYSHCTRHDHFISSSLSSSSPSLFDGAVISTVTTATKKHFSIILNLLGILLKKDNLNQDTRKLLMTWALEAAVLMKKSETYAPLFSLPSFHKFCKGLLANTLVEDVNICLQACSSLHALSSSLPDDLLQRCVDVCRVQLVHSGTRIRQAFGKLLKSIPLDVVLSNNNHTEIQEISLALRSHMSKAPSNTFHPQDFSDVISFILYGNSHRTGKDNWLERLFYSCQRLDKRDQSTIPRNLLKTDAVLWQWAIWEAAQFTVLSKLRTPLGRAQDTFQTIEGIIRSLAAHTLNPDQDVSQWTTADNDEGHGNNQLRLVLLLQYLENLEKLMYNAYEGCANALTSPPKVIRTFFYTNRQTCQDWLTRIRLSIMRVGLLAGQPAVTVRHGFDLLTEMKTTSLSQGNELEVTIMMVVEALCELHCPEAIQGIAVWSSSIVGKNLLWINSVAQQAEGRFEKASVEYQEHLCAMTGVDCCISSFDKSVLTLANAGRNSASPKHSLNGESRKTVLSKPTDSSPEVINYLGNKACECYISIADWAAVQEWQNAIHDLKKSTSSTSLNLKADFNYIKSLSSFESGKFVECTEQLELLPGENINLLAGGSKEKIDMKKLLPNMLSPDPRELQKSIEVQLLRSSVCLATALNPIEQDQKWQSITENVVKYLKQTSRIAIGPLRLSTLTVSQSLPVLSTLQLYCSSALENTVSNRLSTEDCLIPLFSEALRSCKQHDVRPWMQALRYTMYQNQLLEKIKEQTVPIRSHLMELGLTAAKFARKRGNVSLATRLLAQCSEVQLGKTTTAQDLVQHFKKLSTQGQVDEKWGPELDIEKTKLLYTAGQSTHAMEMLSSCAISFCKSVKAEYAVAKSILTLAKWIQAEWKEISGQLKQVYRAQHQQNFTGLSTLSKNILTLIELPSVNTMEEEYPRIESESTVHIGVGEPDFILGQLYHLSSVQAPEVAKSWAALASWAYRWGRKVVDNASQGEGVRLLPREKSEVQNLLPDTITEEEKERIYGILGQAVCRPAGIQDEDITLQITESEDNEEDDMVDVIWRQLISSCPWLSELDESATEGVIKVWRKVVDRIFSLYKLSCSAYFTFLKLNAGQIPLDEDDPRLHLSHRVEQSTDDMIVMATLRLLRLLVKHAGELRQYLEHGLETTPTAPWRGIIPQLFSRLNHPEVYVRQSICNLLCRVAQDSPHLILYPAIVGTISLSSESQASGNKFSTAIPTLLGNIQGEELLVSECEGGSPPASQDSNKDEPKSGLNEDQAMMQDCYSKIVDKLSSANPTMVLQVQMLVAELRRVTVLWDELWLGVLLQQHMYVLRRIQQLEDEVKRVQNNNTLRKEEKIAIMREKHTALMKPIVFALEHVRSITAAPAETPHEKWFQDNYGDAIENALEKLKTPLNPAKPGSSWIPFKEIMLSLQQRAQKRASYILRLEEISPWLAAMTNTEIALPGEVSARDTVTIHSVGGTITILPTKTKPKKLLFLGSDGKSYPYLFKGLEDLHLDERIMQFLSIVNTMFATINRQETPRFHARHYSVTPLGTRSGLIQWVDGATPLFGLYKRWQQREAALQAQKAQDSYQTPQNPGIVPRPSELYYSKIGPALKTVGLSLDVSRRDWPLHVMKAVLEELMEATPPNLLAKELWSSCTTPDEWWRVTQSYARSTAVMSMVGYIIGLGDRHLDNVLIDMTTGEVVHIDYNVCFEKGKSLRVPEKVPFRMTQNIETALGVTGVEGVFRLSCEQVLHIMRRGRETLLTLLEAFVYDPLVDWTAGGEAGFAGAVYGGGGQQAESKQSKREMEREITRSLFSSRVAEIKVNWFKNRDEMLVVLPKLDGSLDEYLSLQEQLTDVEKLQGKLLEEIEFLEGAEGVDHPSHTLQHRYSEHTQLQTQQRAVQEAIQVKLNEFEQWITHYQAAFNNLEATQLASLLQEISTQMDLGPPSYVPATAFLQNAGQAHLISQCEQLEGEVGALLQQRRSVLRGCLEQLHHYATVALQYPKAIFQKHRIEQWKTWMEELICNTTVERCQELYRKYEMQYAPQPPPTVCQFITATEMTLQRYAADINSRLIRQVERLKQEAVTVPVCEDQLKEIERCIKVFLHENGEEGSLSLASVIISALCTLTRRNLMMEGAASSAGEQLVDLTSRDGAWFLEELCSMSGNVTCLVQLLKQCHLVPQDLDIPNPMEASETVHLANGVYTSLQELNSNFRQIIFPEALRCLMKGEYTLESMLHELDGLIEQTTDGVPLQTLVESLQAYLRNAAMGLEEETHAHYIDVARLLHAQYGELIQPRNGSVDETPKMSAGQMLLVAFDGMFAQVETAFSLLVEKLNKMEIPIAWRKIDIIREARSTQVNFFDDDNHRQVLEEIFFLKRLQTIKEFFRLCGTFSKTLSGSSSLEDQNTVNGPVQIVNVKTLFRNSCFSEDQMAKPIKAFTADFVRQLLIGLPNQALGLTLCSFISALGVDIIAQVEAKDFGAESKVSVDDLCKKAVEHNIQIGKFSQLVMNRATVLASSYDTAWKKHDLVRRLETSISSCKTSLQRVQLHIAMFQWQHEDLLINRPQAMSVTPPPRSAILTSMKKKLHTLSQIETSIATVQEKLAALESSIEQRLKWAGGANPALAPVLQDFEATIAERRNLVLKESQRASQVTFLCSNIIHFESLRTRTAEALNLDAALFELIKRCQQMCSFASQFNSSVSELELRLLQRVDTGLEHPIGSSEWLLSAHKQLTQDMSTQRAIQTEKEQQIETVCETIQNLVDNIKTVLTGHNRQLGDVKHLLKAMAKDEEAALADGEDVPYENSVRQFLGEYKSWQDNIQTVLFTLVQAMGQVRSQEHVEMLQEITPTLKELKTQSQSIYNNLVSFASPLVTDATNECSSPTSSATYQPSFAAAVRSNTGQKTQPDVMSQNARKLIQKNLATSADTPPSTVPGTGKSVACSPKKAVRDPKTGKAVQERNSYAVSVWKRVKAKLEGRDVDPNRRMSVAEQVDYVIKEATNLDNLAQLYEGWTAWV

[3] = molecular target: Cyclin-dependent kinase 2 (Homo sapiens, UniProt P24941); test: Inhibition of CDK2
[4] = molecular target: T2, Serine/threonine-protein kinase mTOR (Homo sapiens, UniProt P42345); test: Inhibition of mTOR
Homo sapiens = species on record: Homo sapiens; test: Selectivity ratio of IC50 for mTOR to IC50 for human recombinant SMG1
[5] = molecular target: Phosphatidylinositol 4,5-bisphosphate 3-kinase catalytic subunit alpha isoform (Homo sapiens, UniProt P42336); test: Inhibition of PI3Kalpha using diC8-tagged PIP2 as substrate after 30 to 60 mins by TAMRA-based fluorescence polarization assay
Sequence of Phosphatidylinositol 4,5-bisphosphate 3-kinase catalytic subunit alpha isoform (P42336 whole entry, canonical isoform): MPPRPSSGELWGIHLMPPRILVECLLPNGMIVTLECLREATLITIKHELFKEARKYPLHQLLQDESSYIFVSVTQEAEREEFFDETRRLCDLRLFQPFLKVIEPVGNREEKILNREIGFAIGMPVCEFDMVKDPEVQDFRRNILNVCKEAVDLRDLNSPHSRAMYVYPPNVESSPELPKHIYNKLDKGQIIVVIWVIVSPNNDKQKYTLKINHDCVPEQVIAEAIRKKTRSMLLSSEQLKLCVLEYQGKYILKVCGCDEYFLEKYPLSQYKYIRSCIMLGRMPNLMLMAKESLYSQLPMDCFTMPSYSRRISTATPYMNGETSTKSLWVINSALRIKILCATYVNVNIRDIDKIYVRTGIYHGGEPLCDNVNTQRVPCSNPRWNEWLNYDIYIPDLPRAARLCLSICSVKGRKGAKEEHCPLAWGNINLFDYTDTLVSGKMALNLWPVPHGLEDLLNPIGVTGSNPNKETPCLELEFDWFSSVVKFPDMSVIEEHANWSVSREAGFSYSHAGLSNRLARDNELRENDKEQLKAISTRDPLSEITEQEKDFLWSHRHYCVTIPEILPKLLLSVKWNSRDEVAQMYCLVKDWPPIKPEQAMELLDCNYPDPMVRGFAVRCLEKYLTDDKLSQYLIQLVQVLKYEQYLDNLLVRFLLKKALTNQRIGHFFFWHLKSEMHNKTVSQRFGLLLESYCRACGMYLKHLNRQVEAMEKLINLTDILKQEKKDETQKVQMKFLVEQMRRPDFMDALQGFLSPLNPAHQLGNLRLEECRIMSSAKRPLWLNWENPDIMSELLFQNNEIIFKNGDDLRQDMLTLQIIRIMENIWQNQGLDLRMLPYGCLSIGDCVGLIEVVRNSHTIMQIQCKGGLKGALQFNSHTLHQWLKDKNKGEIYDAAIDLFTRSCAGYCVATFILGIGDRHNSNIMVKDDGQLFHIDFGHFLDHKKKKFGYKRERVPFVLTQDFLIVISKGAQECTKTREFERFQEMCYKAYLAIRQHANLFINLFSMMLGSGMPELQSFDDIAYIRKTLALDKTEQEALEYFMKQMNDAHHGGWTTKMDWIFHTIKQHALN

[6] = molecular target: Phosphatidylinositol 4,5-bisphosphate 3-kinase catalytic subunit gamma isoform (Homo sapiens, UniProt P48736); test: Inhibition of PI3Kgamma using diC8-tagged PIP2 as substrate after 30 to 60 mins by TAMRA-based fluorescence polarization assay
MDA-MB-468 = test: Cytotoxicity against human MDA-MB-468 cells; type: functional, cell-based
MDA-MB-361 = test: Inhibition of PI3K in human MDA-MB-361 cells assessed as inhibition of AKT phosphorylation at 0.3 to 3 uM after 6 hrs by immunostaining analysis; type: cell-based
[7] = molecular target: T2, Serine/threonine-protein kinase mTOR; test: Inhibition of mTOR in human MDA-MB-361 cells assessed as inhibition of p70S6K phosphorylation at 0.3 to 3 uM after 6 hrs by immunostaining analysis; type: cell-based
[8] = molecular target: T1, Serine/threonine-protein kinase SMG1; test: Inhibition of SMG1 in human MDA-MB-361 cells assessed as inhibition of UPF1 phosphorylation at 1 uM after 6 hrs by immunostaining analysis; type: cell-based
[9] = molecular target: T1, Serine/threonine-protein kinase SMG1; test: Inhibition of SMG1 in human MDA-MB-361 cells assessed as inhibition of UPF1 phosphorylation at 0.3 uM after 6 hrs by immunostaining analysis; type: cell-based
[10] = molecular target: Glycogen synthase kinase-3 beta (Homo sapiens, UniProt P49841); test: Inhibition of GSK3beta
[11] = molecular target: Glycogen synthase kinase-3 alpha (Homo sapiens, UniProt P49840); test: Inhibition of GSK3alpha
[12] = molecular target: T1, Serine/threonine-protein kinase SMG1; test: Inhibition of SMG1 in human MDA-MB-361 cells assessed as inhibition of UPF1 phosphorylation after 6 hrs by immunostaining analysis; type: cell-based
[13] = molecular target: T1, Serine/threonine-protein kinase SMG1; test: Inhibition of SMG1 in human MDA-MB-361 cells assessed as inhibition of UPF1 phosphorylation up to 3 uM after 6 hrs by immunostaining analysis; type: cell-based

Sequence of Cyclin-dependent kinase 1 (P06493 whole entry): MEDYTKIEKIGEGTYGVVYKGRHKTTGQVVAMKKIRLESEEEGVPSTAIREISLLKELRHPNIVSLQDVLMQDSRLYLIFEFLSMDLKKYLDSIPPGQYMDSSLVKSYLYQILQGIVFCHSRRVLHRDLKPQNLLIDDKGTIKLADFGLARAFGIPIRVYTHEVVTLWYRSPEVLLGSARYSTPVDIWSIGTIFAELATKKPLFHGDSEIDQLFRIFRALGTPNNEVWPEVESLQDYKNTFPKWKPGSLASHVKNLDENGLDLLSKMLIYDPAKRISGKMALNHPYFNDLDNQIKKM

Row | SMILES | IC50 [1] [nM] | IC50 [2] [nM] | IC50 [3] [nM] | IC50 [4] [nM] | Ratio IC50 (Homo sapiens) | other results
1 | Clc1cccc(Nc2nccc(-c3ccnc(N4CCOCC4)c3)n2)c1 | 35 | 280 | 8.9 | > 20000 | > 71 | 
2 | CN1CCN(c2cc(-c3ccnc(Nc4cccc(S(N)(=O)=O)c4)n3)ccn2)CC1 |  | 310 |  | 3300 | 10 | 
3 | c1ccc(Nc2nccc(-c3ccnc(N4CCOCC4)c3)n2)cc1 |  | 1500 |  | > 4000 | > 3 | 
4 | Clc1ccc(Nc2nccc(-c3ccnc(N4CCOCC4)c3)n2)cc1 |  | 1000 |  | > 20000 | > 19 | 
5 | NS(=O)(=O)c1ccc(Nc2nccc(-c3cccc(C(=O)N4CCCCC4)c3)n2)cc1 |  | 450 |  | 890 |  | 
6 | OCCCNc1cc(-c2ccnc(Nc3cccc(Cl)c3)n2)ccn1 | < 5.2 | 110 | < 5.2 | 800 | 8 | 
7 | COc1cccc(Nc2nccc(-c3ccnc(N4CCOCC4)c3)n2)c1 |  | 1100 |  | 4600 | 4 | 
8 | NS(=O)(=O)c1ccc(Nc2nccc(-c3ccnc(N4CCOCC4)c3)n2)cc1 |  | 370 |  | > 20000 | > 54 | inhibition [13]: inactive
9 | NS(=O)(=O)c1cccc(Nc2nccc(-c3ccnc(NCCCO)c3)n2)c1 | 12 | 22 | 6.7 | 320 | 15 | 
10 | FC(F)(F)c1cccc(Nc2nccc(-c3ccnc(N4CCOCC4)c3)n2)c1 |  | 250 |  | 1700 | 7 | 
11 | N#Cc1cccc(Nc2nccc(-c3ccnc(N4CCOCC4)c3)n2)c1 |  | 80 |  | > 4000 | > 50 | 
12 | Cc1cccc(Nc2nccc(-c3ccnc(N4CCOCC4)c3)n2)c1 | 100 | 330 | 46 | > 20000 | > 61 | 
13 | NS(=O)(=O)c1cccc(Nc2nccc(-c3ccnc(N4C5CCC4COC5)c3)n2)c1 | 100 | 25 | 31 | 3200 | 130 | 

Compounds with a lower IC50 [2], results first:

Row | IC50 [1] [nM] | IC50 [2] [nM] | IC50 [3] [nM] | IC50 [4] [nM] | Ratio IC50 (Homo sapiens) | SMILES | other results
14 | 62 | < 0.05 | 23 | 18 | > 360 | CNC(=O)Nc1ccc(-c2cc(-c3ccnc(Nc4cccc(S(N)(=O)=O)c4)n3)ccn2)cc1 | IC50 [5]: 44 nM; IC50 [6]: 91 nM
15 | 32000 | 0.11 | 7100 | 50 | 455 | CCN(CC)S(=O)(=O)c1cc(Nc2nccc(-c3ccnc(-c4ccc(NC(=O)NC)cc4)c3)n2)ccc1Cl | IC50 (MDA-MB-468): 75 nM; inhibition (MDA-MB-361): inactive; inhibition [7]: inactive; inhibition [8]: Active; IC50 [5]: 92 nM; IC50 [6]: 60 nM; inhibition [9]: Active; IC50 [10]: 330 nM; IC50 [11]: 260 nM
16 | 7.4 | 3 | < 5.2 | 110 | 37 | CCN(CC)c1cc(-c2ccnc(Nc3cccc(S(N)(=O)=O)c3)n2)ccn1 | 
17 | 36 | 3 | 16 | 140 | 47 | NS(=O)(=O)c1cccc(Nc2nccc(-c3ccnc(N4CCCCC4)c3)n2)c1 | inhibition (MDA-MB-361): Active; inhibition [12]: Dose-dependent effect; inhibition [7]: Active
18 | 210 | 0.1 | 100 | 15 | > 150 | CNC(=O)Nc1ccc(-c2cc(-c3ccnc(Nc4cccc(S(=O)(=O)NC)c4)n3)ccn2)cc1 | IC50 [5]: 80 nM; IC50 [6]: 82 nM
19 | 14000 | 0.2 | 3000 | 88 | 440 | CCN(CC)S(=O)(=O)c1cc(Nc2nccc(-c3ccnc(-c4ccc(NC(=O)NC)cc4)c3)n2)ccc1C | IC50 [5]: 130 nM; IC50 [6]: 93 nM
20 | 48 | 6 | 21 | 200 | 33 | NS(=O)(=O)c1cccc(Nc2nccc(-c3ccnc(N4CC5CCC(C4)O5)c3)n2)c1 | 
21 | 55 | 11 | 19 | 610 | 56 | NS(=O)(=O)c1cccc(Nc2nccc(-c3ccnc(N4CCOCC4)c3)n2)c1 | 
22 | 1400 | < 0.05 | 520 | 12 | > 244 | CNC(=O)Nc1ccc(-c2cc(-c3ccnc(Nc4ccc(Cl)c(S(=O)(=O)N(C)C)c4)n3)ccn2)cc1 | IC50 [5]: 33 nM; IC50 [6]: 54 nM
23 | 1200 | < 0.05 | 460 | 45 | > 900 | CNC(=O)Nc1ccc(-c2cc(-c3ccnc(Nc4ccc(C)c(S(=O)(=O)N(C)C)c4)n3)ccn2)cc1 | IC50 [5]: 61 nM; IC50 [6]: 72 nM
24 | 230 | < 0.05 | 110 | 18 | > 350 | CNC(=O)Nc1ccc(-c2cc(-c3ccnc(Nc4ccc(C)c(S(=O)(=O)NC)c4)n3)ccn2)cc1 | IC50 [5]: 43 nM; IC50 [6]: 63 nM
25 | 3200 | 0.2 | 560 | 25 | 125 | CCN(CC)S(=O)(=O)c1cccc(Nc2nccc(-c3ccnc(-c4ccc(NC(=O)NC)cc4)c3)n2)c1 | IC50 [5]: 78 nM; IC50 [6]: 59 nM
26 | 320 | < 0.05 | 140 | 7.7 | > 154 | CNC(=O)Nc1ccc(-c2cc(-c3ccnc(Nc4ccc(Cl)c(S(=O)(=O)NC)c4)n3)ccn2)cc1 | 
27 |  | < 0.05 |  | 16 | > 320 | CNC(=O)Nc1ccc(-c2cc(-c3ccnc(Nc4ccc(C)c(S(N)(=O)=O)c4)n3)ccn2)cc1 | 
